One assay deals with T1, TRPC5 channel (Homo sapiens, UniProt Q9UL62).
T1 construct: expressed in transfected cells; host or cells: HEK293/TREx (Invitrogen), tetracycline-induced
T1 sequence (Q9UL62 1-973): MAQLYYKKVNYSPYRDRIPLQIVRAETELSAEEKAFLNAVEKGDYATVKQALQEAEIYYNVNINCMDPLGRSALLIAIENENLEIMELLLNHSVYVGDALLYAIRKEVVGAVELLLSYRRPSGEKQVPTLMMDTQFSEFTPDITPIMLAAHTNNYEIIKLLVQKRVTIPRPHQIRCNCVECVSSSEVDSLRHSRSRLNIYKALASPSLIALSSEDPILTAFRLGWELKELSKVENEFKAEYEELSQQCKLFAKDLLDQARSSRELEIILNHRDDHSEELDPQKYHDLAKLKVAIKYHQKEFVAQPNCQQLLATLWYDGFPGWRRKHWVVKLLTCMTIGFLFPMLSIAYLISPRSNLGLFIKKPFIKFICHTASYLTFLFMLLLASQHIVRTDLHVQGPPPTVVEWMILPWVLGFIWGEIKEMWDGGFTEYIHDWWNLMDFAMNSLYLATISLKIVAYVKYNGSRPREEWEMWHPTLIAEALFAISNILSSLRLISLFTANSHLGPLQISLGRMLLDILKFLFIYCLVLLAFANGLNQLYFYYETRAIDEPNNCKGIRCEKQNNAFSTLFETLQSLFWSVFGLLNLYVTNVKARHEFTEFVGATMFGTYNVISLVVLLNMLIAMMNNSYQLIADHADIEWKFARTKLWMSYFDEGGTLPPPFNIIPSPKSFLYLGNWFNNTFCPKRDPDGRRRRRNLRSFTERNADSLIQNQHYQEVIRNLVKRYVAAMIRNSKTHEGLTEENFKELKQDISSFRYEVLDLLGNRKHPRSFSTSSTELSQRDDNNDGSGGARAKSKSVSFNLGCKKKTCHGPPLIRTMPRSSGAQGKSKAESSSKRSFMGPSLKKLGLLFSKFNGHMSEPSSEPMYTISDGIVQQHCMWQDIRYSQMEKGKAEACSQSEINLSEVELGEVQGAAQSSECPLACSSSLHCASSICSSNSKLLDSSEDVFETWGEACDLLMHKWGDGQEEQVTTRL
As to the kind of experiment: Whole-cell patch clamp experiments on TRPC5 current. Format: cell-based. The conditions noted are these: TRPC5-expressing HEK293 TREx cells, current activated by LaCl3, holding potential −40 mV, currents quantified at −80 mV and +80 mV. An excerpt:
Patch clamp experiments permit the detection of currents through the TRPC5 channel in the cell line described above. In normal whole-cell patch clamp recordings, a glass electrode is brought into contact with a single cell and a high-resistance (gigaohm) seal is established with the cell membrane. The membrane is then ruptured to achieve the whole-cell configuration, permitting control of the voltage of the cell membrane and measurement of currents flowing across the membrane using the amplifier attached to the electrode and resulting in the replacement of cytoplasm with the pipette solution. A perfusion system permits control of the extracellular solution, including the addition of blockers and activators of the current. The current can be activated by including 1.4 μM free Ca^2+ in the pipette (intracellular) solution, and 80 μM LaCl3 in the extracellular solution.
TRPC5 cells were induced 20-48 hours, removed from growth plates, and replated at low density (to attain good single-cell physical separation) on glass coverslips for measurement. In some cases, cells were grown in low density overnight on glass coverslips. […] Currents elicited were quantified at −80 mV and +80 mV. The internal solution consisted of 140 mM cesium aspartate, 10 mM HEDTA, 2 mM CaCl2, 2.27 mM MgCl2 and 10 mM HEPES, pH 7.2, with 1,400 nM calculated free Ca^2+. […]
(In general: Patch clamp records ionic current or voltage across a cell membrane.)
On to `CC(C)c1ccccc1-c1ncc2c(c1Cc1ccc(Cl)cc1)c(=O)n(CCCO)c(=O)n2C` [Compound 49, 5-(4-chlorobenzyl)-3-(3-hydroxypropyl)-6-(2-isopropylphenyl)-1-methylpyrido[3,4-d]pyrimidine-2,4(1H,3H)-dione], for which half-maximal inhibition (IC50) required 0.0388 µM.

In a further assay the target is T1, TRPC5 channel. As to the kind of experiment: High throughput screening assay: Fluo4 cell-based fluorescence Ca2+ influx assay. The settings on record: HEK293/TREx cells inducibly expressing TRPC5, inhibition of [Ca2+]i rise after high-Ca2+ Ringer (14 mM Ca2+), triplicate, 0.027-20 μM. From the text: The assay depended on detection of the rise in intracellular Ca2+ concentration ([Ca2+]i) following channel activation in cells inducibly expressing the TRPC5 channel. Ca2+ rise was quantified with the use of fluorescent Ca2+ indicators that were loaded into cells and thereafter indicated the [Ca2+]i Ca2+ influx followed activation of the TRPC5 channel. Compounds inhibiting the [Ca2+]i rise were considered hits for further investigation.
The commercially available HEK293/TREx line (Invitrogen) was stably transfected with a TRPC5 construct and screened by conventional calcium imaging to find clones with TRPC5 expression following stimulation with 1 μg/ml tetracycline. These cells were maintained in the growth medium recommended by the manufacturer supplemented with 100 μg/ml hygromycin to promote retention of the TRPC5 construct. After growing to near confluency, cells were plated at a density of ˜35,000 cells/well in 384 well CellBind plates (Corning) in the presence of 1 μg/ml tetracycline, and allowed to grow for 20-30 hrs. A nearly confluent monolayer resulted. Cells were then loaded with Ca2+ dye: Fura-2/AM or Fluo4/AM was added to the wells to a final concentration of 4 μM or 0.5 μM, respectively, and incubated for 80 min or 60 min, respectively, at room temperature. Supernatant was then removed from the cells by inverting plates with a sharp flick, and 25 μl Hank's Balanced Salt Solution (HBSS; 0.185 g/l D-glucose, 0.9767 g/l MgSO4 (anhydrous), 0.4 g/l KCl, 0.06 g/l KH2PO4 (anhydrous), 0.35 g/l NaHCO3, 8.0 g/l NaCl, and 0.04788 g/l Na2HPO4 (anhydrous); pH 7.4) was then added to each well. Following ˜0.5 hour for recovery from loading, cells were assayed using the Hamamatsu FDSS 6000 system, which permitted illumination alternately at 340 nm and 380 nm for Fura-2 experiments, or at 485 nm for Fluo4 experiments. Frames were acquired at a rate of 0.2 Hz. During the assay, the plates were continuously vortexed, with pipette mixing of wells following addition of each reagent. For the screening assay, 26 μl of a diluted compound stock (at 50 μM) was added to each well for 2 minutes following the collection of a short (4 frame) baseline. 13 μl 62 mM high-Ca2+ Ringer solution (4.17 ml of normal ringer (with 2 mM Ca2+) plus 5.83 ml of isotonic calcium ringer (105 mM Ca2+; in this ringer all sodium has been replaced with calcium)) was then added to each well, achieving a final concentration of 14 mM Ca2+ and 10 μM test compound. Data was collected for ˜3 minutes following addition of high Ca2+ Ringer, where the fluorescent intensity (for Fluo4) and the F340/F380 ratio (for Fura-2) were proportional to the [Ca2+]i Negative controls consisted of HEK293/TREx TRPC5 cells exposed to high Ca2+ solution, but no compound. Positive control conditions consisted of addition of 2-APB, a promiscuous blocker of TRPC5 and other channels, to columns 23 and 24 of the plates, to a final concentration of 200 μM. These controls defined a screening window, and “hits” were defined as those compounds inhibiting the fluorescence response by at least 40%. IC50 values were determined for compounds defined as “hits.” The Fluo4 cell-based fluorescence assay was used to determine the intracellular Ca2+ concentration in the presence of varying drug concentration. Final concentrations of compounds tested were 20 μM, 6.667 μM, 2.222 μM, 0.741 μM, 0.247 μM, 0.082 μM, and 0.027 μM. Compounds were tested in triplicate at all concentrations. Standard software was used to fit IC50 curves. A value of NF was assigned when no IC50 curves could not be fit.
Additionally or alternatively, efficacy can be represented as % inhibition in the presence (of a given concentration of compound) versus the absence of compound or in comparison to a control compound. For example, efficacy can be represented as % inhibition of ion flux in the presence versus the absence of compound.
Molecule `Cn1c(=O)n(CCCO)c(=O)c2c(Cc3ccc(Cl)cc3)c(-c3ccc(Cl)cc3)ncc21` [Compound 47, 5-(4-chlorobenzyl)-6-(4-chlorophenyl)-3-(3-hydroxypropyl)-1-methylpyrido[3,4-d]pyrimidine-2,4(1H,3H)-dione] gave an IC50 of 1.61 µM.

For `Cn1c(=O)n(CCCO)c(=O)c2c(Cc3ccccc3)c(-c3cccc(OC(F)(F)F)c3)ncc21` [Compound 53, 5-benzyl-3-(3-hydroxypropyl)-1-methyl-6-(3-(trifluoromethoxy)phenyl)pyrido[3,4-d]pyrimidine-2,4(1H,3H)-dione], half-maximal inhibition (IC50) required 0.195 µM.

The molecule `CC(C)CCc1c(-c2ccccc2C(C)C)ncc2c1c(=O)n(CCCO)c(=O)n2C` [Compound 50, 3-(3-hydroxypropyl)-5-isopentyl-6-(2-isopropylphenyl)-1-methylpyrido[3,4-d]pyrimidine-2,4(1H,3H)-dione] returned an IC50 of 9.8 µM.

As to `CC(C)CCc1c(-c2ccc(Cl)cc2)ncc2c1c(=O)n(CCCO)c(=O)n2C` [Compound 48, 6-(4-chlorophenyl)-3-(3-hydroxypropyl)-5-isopentyl-1-methylpyrido[3,4-d]pyrimidine-2,4(1H,3H)-dione], the IC50 was found to be 1.6 µM.

For `Cn1c(=O)n(CCCO)c(=O)c2c(Cc3ccc(Cl)cc3)c(Oc3cccc(Cl)c3)ncc21` [Compound 51, 5-(4-chlorobenzyl)-6-(3-chlorophenoxy)-3-(3-hydroxypropyl)-1-methylpyrido[3,4-d]pyrimidine-2,4(1H,3H)-dione], the IC50 came to 8.84 µM.

The molecule `CC(C)c1ccccc1-c1ncc2c(c1Cc1ccc(Cl)cc1)c(=O)n(CCCO)c(=O)n2C` [Compound 49, 5-(4-chlorobenzyl)-3-(3-hydroxypropyl)-6-(2-isopropylphenyl)-1-methylpyrido[3,4-d]pyrimidine-2,4(1H,3H)-dione] returned an IC50 of 2.36 µM.

The molecule `CC(C)CCc1c(-c2cccc(Cl)c2)ncc2c1c(=O)n(CCCO)c(=O)n2C` [Compound 52, 6-(3-chlorophenyl)-3-(3-hydroxypropyl)-5-isopentyl-1-methylpyrido[3,4-d]pyrimidine-2,4(1H,3H)-dione] came in with an IC50 of 4.18 µM.

Molecule `CC(C)c1ccccc1-c1cc2c(=O)n(CCCO)c(=O)n(C)c2cn1` [Compound 46, 3-(3-hydroxypropyl)-6-(2-isopropylphenyl)-1-methylpyrido[3,4-d]pyrimidine-2,4(1H,3H)-dione] came in with an IC50 of 4.24 µM.

As a reminder, the IC50 is the concentration needed to halve the response being measured. Low values mean inhibition by little substance, high ones a need for much substance.

The values are drawn from US9440973B2, “Pyrido[3,4-d]pyrimidine-2,4(1H,3H)-dione derivatives” (Hydra Biosciences, Inc., priority 2014, dated 2016).
